Measurements: article PMC8820820, “Feasibility and safety of targeting mitochondria for cancer therapy – preclinical characterization of gamitrinib, a first-in-class, mitochondriaL-targeted small molecule Hsp90 inhibitor” (Cancer Biology & Therapy, 2022)

Tests used:
[1] = Gamitrinib pharmacokinetics in rat plasma, single IV dose; format: in vivo, Sprague-Dawley rats; details: after IV Gamitrinib 5 mg/kg
Method: Sprague-Dawley rats (n = 3) were administered with a single intravenous (IV) dose of 1 mL Gamitrinib (5 mg/kg) formulated as described above without added microfluidization. Blood samples were collected via lateral tail vein using K2EDTA as an anticoagulant at 0.083, 0.25, 0.5, 1, 2, 4, and 24 h post-dose, chilled on ice, and centrifuged at 5000 rpm for 10 min. Aliquots (0.2 mL) of each plasma sample were stored frozen at −20°C. For analysis, 50 µL aliquots of the study samples were mixed with 50 µL of ACN/H2O (50:50), extracted by protein precipitation using ACN containing the internal standard Gamitrinib-d15 (100 ng/mL), and the aliquots of the supernatant were mixed with deionized water for Gamitrinib determination. Batch samples under analysis included a calibration curve, a matrix blank (blank rat plasma), a reagent blank, a control zero (blank rat plasma spiked with internal standard), and duplicate QC samples at three concentration levels (low, medium, and high) in addition to the study samples. Within each batch, the study samples were bracketed by calibration standards or QC samples. The lowest calibration standard served to evaluate system suitability at the beginning of each batch. […] Overall, the concentration of Gamitrinib was measured in 21 rat plasma samples in 1 analytical batch using LC-MS/MS data acquisition on a Shimadzu Nexera LC system coupled with an AB Sciex Triple Quad 5500 mass spectrometer. Chromatograms were integrated using Analyst 1.6.2 software. A weighted (1/x^2, x = concentration) linear regression was used to generate the calibration curve for Gamitrinib. […] The mean, standard deviation, precision, accuracy, and assay variability were calculated using Microsoft Excel.

[2] = Bidirectional Caco2 cell monolayer permeability; details: human
Method: Caco-2 and HEK293 cells were obtained from the American Type Culture Collection (ATCC, Manassas, VA) and grown in culture according to the supplier’s specifications. In some experiments, HEK293 cells were stably transfected with hERG cDNA, and polyclonal cultures were maintained in the presence of 250 µg/ml geneticin (G418).
Bidirectional Caco2 cell monolayer permeability. Caco2 cells (2x10^4/well) were seeded onto apical chambers of a 24-multiwell insert plate and incubated at 37°C in 5% CO2. After 21 d, the transepithelial electrical resistance (TEER) in ohms was read for each insert well as a quality control for monolayer integrity (>900 ohms or 300 ohms cm^2). The cell monolayers were incubated with 400 µL transport buffer on the apical (A) and 1.2 mL on the basolateral (B) sides for 30 min. After preincubation, dosing solution was added to the apical (400 µL, A-to-B, donor) or basolateral sides (1.2 mL, B-to-A, donor) or receiving buffer to the apical (400 µL, B-to-A, receiver) or basolateral sides (1.2 mL, A-to-B, receiver) for 90 min at 37°C in 5% CO2. […] Papp’A>B (nm/s) was calculated with Equation 1.
Papp Efflux Ratio (ER) was calculated with Equation 2.
ER=Papp,B>APapp,A>BEquation 2: […]
Propranolol (high permeability marker, non-P-gp substate) and digoxin (P-gp substrate) were used as controls.

[3] = Phase I, cytochrome P450-mediated human liver microsome metabolism
[4] = in vitro; details: human
[5] = Caco-2, Papp Efflux Ratio (ER), Papp,B>A / Papp,A>B
[6] = Caco-2, Papp, A>B, Caco2 monolayer, apical to basolateral
[7] = Caco-2, Papp, B>A, Caco2 monolayer, basolateral to apical
[8] = Caco-2, Pexact Efflux Ratio, Caco2 monolayer
[9] = Caco-2, Pexact,A>B, Caco2 monolayer
[10] = Caco-2, Pexact,B>A, Caco2 monolayer

**Q.** With `CO[C@H]1/C=C\C=C(/C)C(=O)NC2=CC(=O)C(N)=C(C[C@@H](C)C[C@H](OC)[C@H](O)[C@@H](C)/C=C(\C)[C@@H]1OC(N)=O)C2=O` [17-AG, 17-(amino)-17-demethoxygeldanamycin] as the molecule, how does the 17-AG plasma concentration ([1]; animal 1, 5 min) read?
**A.** BLOQ

**Q.** What about the 17-AG plasma concentration ([1]; animal 1, 15 min) of the same molecule?
**A.** 0.561 ng/mL

**Q.** What about the 17-AG plasma concentration ([1]; animal 1, 30 min) of the same molecule?
**A.** BLOQ

**Q.** And the 17-AG plasma concentration ([1]; animal 1, 60 min)?
**A.** BLOQ

**Q.** And the 17-AG plasma concentration ([1]; animal 1, 120 min)?
**A.** BLOQ

**Q.** And the 17-AG plasma concentration ([1]; animal 1, 240 min)?
**A.** BLOQ

**Q.** And the 17-AG plasma concentration ([1]; animal 1, 1440 min)?
**A.** BLOQ

**Q.** What about the 17-AG plasma concentration ([1]; animal 2, 5 min) of the same molecule?
**A.** 1.519 ng/mL

**Q.** And the 17-AG plasma concentration ([1]; animal 2, 15 min)?
**A.** BLOQ

**Q.** What about the 17-AG plasma concentration ([1]; animal 2, 30 min) of the same molecule?
**A.** BLOQ

**Q.** What about the 17-AG plasma concentration ([1]; animal 2, 60 min) of the same molecule?
**A.** BLOQ

**Q.** What about the 17-AG plasma concentration ([1]; animal 2, 120 min) of the same molecule?
**A.** BLOQ

**Q.** And the 17-AG plasma concentration ([1]; animal 2, 240 min)?
**A.** BLOQ

**Q.** And the 17-AG plasma concentration ([1]; animal 2, 1440 min)?
**A.** BLOQ

**Q.** And the 17-AG plasma concentration ([1]; animal 3, 5 min)?
**A.** 1.113 ng/mL

**Q.** What about the 17-AG plasma concentration ([1]; animal 3, 15 min) of the same molecule?
**A.** BLOQ

**Q.** And the 17-AG plasma concentration ([1]; animal 3, 30 min)?
**A.** BLOQ

**Q.** And the 17-AG plasma concentration ([1]; animal 3, 60 min)?
**A.** BLOQ

**Q.** And the 17-AG plasma concentration ([1]; animal 3, 120 min)?
**A.** BLOQ

**Q.** What about the 17-AG plasma concentration ([1]; animal 3, 240 min) of the same molecule?
**A.** BLOQ

**Q.** And the 17-AG plasma concentration ([1]; animal 3, 1440 min)?
**A.** BLOQ

**Q.** What does the source list for `C[C@H]1O[C@@H](O[C@H]2[C@@H](O)C[C@H](O[C@H]3[C@@H](O)C[C@H](O[C@H]4CC[C@@]5(C)[C@H](CC[C@@H]6[C@@H]5C[C@@H](O)[C@]5(C)[C@@H](C7=CC(=O)OC7)CC[C@]65O)C4)O[C@@H]3C)O[C@@H]2C)C[C@H](O)[C@@H]1O` [Digoxin]?
**A.** efflux ratio at 90 min [2, 5]: 21; Papp A→B at 90 min [2, 6]: 0.547 ×10⁻⁶ cm/s; Papp B→A at 90 min [2, 7]: 11.5 ×10⁻⁶ cm/s; efflux ratio at 90 min [2, 8]: 21.2; Papp A→B at 90 min [2, 9]: 0.413 ×10⁻⁶ cm/s; Papp B→A at 90 min [2, 10]: 8.76 ×10⁻⁶ cm/s

**Q.** What does the source list for `Cc1ncc2n1-c1ccc(Cl)cc1C(c1ccccc1F)=NC2` [Midazolam, reference compound]?
**A.** elimination rate constant (k) ([3]; 0.5 µM, human liver microsomes): 0.04; intrinsic clearance (CLint) ([3]; 0.5 µM, human liver microsomes): 3.23 mL/min/g; half-life at 0.5 µM ([3]; human, liver microsomes): 17 min

**Q.** What does the source list for `CC(C)NCC(O)COc1cccc2ccccc12` (stereo not shown) [Propranolol]?
**A.** efflux ratio at 90 min [2, 5]: 0.87; Papp A→B at 90 min [2, 6]: 18.6 ×10⁻⁶ cm/s; Papp B→A at 90 min [2, 7]: 16.2 ×10⁻⁶ cm/s; efflux ratio at 90 min [2, 8]: 0.81; Papp A→B at 90 min [2, 9]: 20.9 ×10⁻⁶ cm/s; Papp B→A at 90 min [2, 10]: 17 ×10⁻⁶ cm/s

**Q.** With `CC(=O)CC(c1ccccc1)c1c(O)c2ccccc2oc1=O` (stereo not shown) [warfarin] as the molecule, how does the recovery at 4 h, 2 µg/mL [4] read?
**A.** 88.3 ± 2.9%
